From US11078228B2, “Ectonucleotidase inhibitors and methods of use thereof” (Calithera Biosciences, Inc., priority 2018, dated 2021) come the findings set out here.

In general, IC50 refers to the concentration that inhibits the measured activity by half.

recombinant CD73, sequence (P21589 27-547): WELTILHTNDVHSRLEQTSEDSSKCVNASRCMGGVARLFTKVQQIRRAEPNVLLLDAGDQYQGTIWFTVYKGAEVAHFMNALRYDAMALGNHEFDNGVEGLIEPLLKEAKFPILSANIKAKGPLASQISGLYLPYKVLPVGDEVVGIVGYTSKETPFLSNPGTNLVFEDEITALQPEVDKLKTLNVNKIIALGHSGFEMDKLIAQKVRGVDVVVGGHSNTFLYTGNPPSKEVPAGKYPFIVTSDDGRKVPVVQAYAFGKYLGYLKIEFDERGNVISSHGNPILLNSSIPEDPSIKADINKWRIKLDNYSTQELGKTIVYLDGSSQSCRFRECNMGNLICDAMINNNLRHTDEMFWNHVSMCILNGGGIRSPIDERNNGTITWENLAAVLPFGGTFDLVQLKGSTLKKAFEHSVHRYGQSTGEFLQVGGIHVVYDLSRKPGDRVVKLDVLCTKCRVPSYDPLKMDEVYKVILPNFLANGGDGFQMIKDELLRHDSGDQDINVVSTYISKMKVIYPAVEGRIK

This assay deals with recombinant CD73 (Homo sapiens (Human), UniProt P21589). Put plainly: Assay 2: Inhibition of the CD73 enzyme in vitro (0.05 nM CD73, 1 hour 37° C., Malachite Green). It counts as biochemical. Particulars: 0.05 nM CD73, 50 μM AMP, 1 hour at 37° C. Summed up:
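Free phosphate was quantified from absorbance at 630 nm against a phosphate standard curve. This was read 5 min after Malachite Green was added at room temperature. Beforehand, the recombinant soluble enzyme reacted for 1 hour at 37° C.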
Turning to `C#C[C@@]1(O)[C@@H](COC(Cc2ccc(N3CCCNC3=O)cc2)(C(=O)O)C(=O)O)O[C@@H](n2cnc3c(NCc4ccc(OC)cc4OC)cc(Cl)nc32)[C@@H]1O` [Example 156, 2-(((2R,3S,4R,5R)-5-(5-chloro-7-((2,4-dimethoxybenzyl)amino)-3H-imidazo[4,5-b]pyridin-3-yl)-3-ethynyl-3,4-dihydroxytetrahydrofuran-2-yl)methoxy)-2-(4-(2-oxotetrahydropyrimidin-1 (2H)-yl)benzyl)malonic acid], the half-maximal inhibitory concentration (IC50) is 0.14 nM.

Turning to `C#C[C@@]1(O)[C@@H](CO[C@@](Cc2ccc(N3CCCNC3=O)cc2)(C(=O)O)C(=O)OCC)O[C@@H](n2cnc3c(N)nc(Cl)nc32)[C@@H]1O` (single isomer, unassigned) [Example 165], the IC50 came out at 45 nM.

For `C#C[C@@]1(O)[C@@H](COC(Cc2ccccc2)(C(=O)O)C(=O)O)O[C@@H](n2cnc3c(N(C)CC4CC4)nc(Cl)nc32)[C@@H]1O` [Example 75, 2-benzyl-2-(((2R,3S,4R,5R)-5-(2-chloro-6-((cyclopropylmethyl)-(methyl)amino)-9H-purin-9-yl)-3-ethynyl-3,4-dihydroxytetrahydrofuran-2-yl)methoxy)malonic acid], the half-maximal inhibitory concentration (IC50) is 0.6 nM.

As to `C#C[C@@]1(O)[C@@H](COC(C(=O)O)C(=O)O)O[C@@H](n2cnc3c(NCc4ccccc4)nc(Cl)nc32)[C@@H]1O` [Example 118, 2-(((2R,3S,4R,5R)-5-(6-(benzylamino)-2-chloro-9H-purin-9-yl)-3-ethynyl-3,4-dihydroxytetrahydrofuran-2-yl)methoxy)malonic acid], the IC50 is 48 nM.

For `C#C[C@@]1(O)[C@@H](COC(Cc2ccc(N3CCCNC3=O)cc2)(C(=O)O)C(=O)O)O[C@@H](n2cc(C)c(=O)[nH]c2=O)[C@@H]1O` [Example 133, 2-(((2R,3S,4R,5R)-3-ethynyl-3,4-dihydroxy-5-(5-methyl-2,4-dioxo-3,4-dihydropyrimidin-1 (2H)-yl)tetrahydrofuran-2-yl)methoxy)-2-(4-(2-oxotetrahydropyrimidin-1 (2H)-yl)benzyl)malonic acid], the 50% inhibitory concentration (IC50) was 7 nM.

With `C#C[C@@]1(O)[C@@H](COC(Cc2ccccc2)(C(=O)O)C(=O)OCC)O[C@@H](n2cnc3c(N)nc(C(N)=O)nc32)[C@@H]1O` (stereo partly drawn) [Example 121, 2-(((2R,3S,4R,5R)-5-(6-amino-2-carbamoyl-9H-purin-9-yl)-3-ethynyl-3,4-dihydroxytetrahydrofuran-2-yl)methoxy)-2-benzyl-3-ethoxy-3-oxopropanoic acid], the IC50 is 1710 nM.

For the molecule `C#C[C@@]1(O)[C@@H](COC(Cc2ccccc2)(C(=O)O)C(=O)O)O[C@@H](n2cnc3c(NCc4ccccc4F)nc(Cl)nc32)[C@@H]1O` [Example 67, 2-benzyl-2-(((2R,3S,4R,5R)-5-(2-chloro-6-((2-fluorobenzyl)amino)-9H-purin-9-yl)-3-ethynyl-3,4-dihydroxytetrahydrofuran-2-yl)methoxy)malonic acid], the IC50 came out at 0.8 nM.

Consider `C#C[C@@]1(O)[C@@H](COC(Cc2ccc(N3CCCN(CCO)C3=O)cc2)(C(=O)O)C(=O)O)O[C@@H](n2cnc3c(NC)nc(Cl)nc32)[C@@H]1O` [Example 137, 2-(((2R,3S,4R,5R)-5-(2-chloro-6-(methylamino)-9H-purin-9-yl)-3-ethynyl-3,4-dihydroxytetrahydrofuran-2-yl)methoxy)-2-(4-(3-(2-hydroxyethyl)-2-oxotetrahydropyrimidin-1 (2H)-yl)benzyl)malonic acid], for which the IC50 worked out at 0.31 nM.

Regarding `C#C[C@@]1(O)[C@@H](COC(Cc2ccccc2)(C(=O)O)C(=O)NC)O[C@@H](n2cnc3c(NCC4CC4)nc(Cl)nc32)[C@@H]1O` (stereo partly drawn) [Example 106, 2-benzyl-2-(((2R,3S,4R,5R)-5-(2-chloro-6-((cyclopropylmethyl)amino)-9H-purin-9-yl)-3-ethynyl-3,4-dihydroxytetrahydrofuran-2-yl)methoxy)-3-(methylamino)-3-oxopropanoic acid], the IC50 came to 296 nM.

As to `C#C[C@@]1(O)[C@@H](COC(Cc2ccccc2)(C(=O)O)C(=O)O)O[C@@H](n2cnc3c(N[C@H](C)CO)nc(Cl)nc32)[C@@H]1O` [Example 98, 2-benzyl-2-(((2R,3S,4R,5R)-5-(2-chloro-6-(((R)-1-hydroxypropan-2-yl)amino)-9H-purin-9-yl)-3-ethynyl-3,4-dihydroxytetrahydrofuran-2-yl)methoxy)malonic acid], the half-maximal inhibitory concentration (IC50) is 2 nM.

For the molecule `C#C[C@@]1(O)[C@@H](COC(Cc2ccccc2)(C(=O)O)C(=O)O)O[C@@H](n2cnc3c(NCc4ccc(F)cc4)nc(Cl)nc32)[C@@H]1O` [Example 68, 2-benzyl-2-(((2R,3S,4R,5R)-5-(2-chloro-6-((4-fluorobenzyl)amino)-9H-purin-9-yl)-3-ethynyl-3,4-dihydroxytetrahydrofuran-2-yl)methoxy)malonic acid], the half-inhibitory concentration (IC50) is 0.8 nM.

`C#C[C@@]1(O)[C@@H](COC(Cc2ccc(-c3cccn(CC)c3=O)cc2)(C(=O)O)C(=O)O)O[C@@H](n2cnc3c(N)nc(Cl)nc32)[C@@H]1O` [Example 20, 2-(((2R,3S,4R,5R)-5-(6-amino-2-chloro-9H-purin-9-yl)-3-ethynyl-3,4-dihydroxytetrahydrofuran-2-yl)methoxy)-2-(4-(1-ethyl-2-oxo-1,2-dihydropyridin-3-yl)benzyl)malonic acid]: the IC50 worked out at 0.2 nM.

As to `C#C[C@@]1(O)[C@@H](COC(Cc2ccccc2)(C(=O)O)C(=O)O)O[C@@H](n2cnc3c(NC(C)C)cc(Cl)nc32)[C@@H]1O` [Example 30, 2-benzyl-2-(((2R,3S,4R,5R)-5-(5-chloro-7-(isopropylamino)-3H-imidazo[4,5-b]pyridin-3-yl)-3-ethynyl-3,4-dihydroxytetrahydrofuran-2-yl)methoxy)malonic acid], the IC50 was found to be 5 nM.

Consider `C#C[C@@]1(O)[C@@H](COC(Cc2ccc(-c3cccn(CC)c3=O)cc2)(C(=O)O)C(=O)O)O[C@@H](n2cnc3c(NC)nc(Cl)nc32)[C@@H]1O` [Example 130, 2-(((2R,3S,4R,5R)-5-(2-chloro-6-(methylamino)-9H-purin-9-yl)-3-ethynyl-3,4-dihydroxytetrahydrofuran-2-yl)methoxy)-2-(4-(1-ethyl-2-oxo-1,2-dihydropyridin-3-yl)benzyl)malonic acid], for which the IC50 came out at 0.36 nM.

With `C#C[C@@]1(O)[C@@H](COC(Cc2ccc(N3CCCNC3=O)cc2)(C(=O)O)c2cscn2)O[C@@H](n2cnc3c(N)nc(Cl)nc32)[C@@H]1O` (stereo partly drawn) [Example 175, 2-(((2R,3S,4R,5R)-5-(6-amino-2-chloro-9H-purin-9-yl)-3-ethynyl-3,4-dihydroxytetrahydrofuran-2-yl)methoxy)-3-(4-(2-oxotetrahydropyrimidin-1 (2H)-yl)phenyl)-2-(thiazol-4-yl)propanoic acid], the IC50 was determined as 1 nM.

Consider `C#C[C@@]1(O)[C@@H](COC(Cc2ccccc2)(C(=O)O)C(=O)O)O[C@@H](n2cnc3c(N4CCC[C@@H]4CO)nc(Cl)nc32)[C@@H]1O` [Example 103, 2-benzyl-2-(((2R,3S,4R,5R)-5-(2-chloro-6-((R)-2-(hydroxymethyl)-pyrrolidin-1-yl)-9H-purin-9-yl)-3-ethynyl-3,4-dihydroxytetrahydrofuran-2-yl)methoxy)malonic acid], for which the 50% inhibitory concentration (IC50) was determined as 3 nM.

For `C#C[C@@]1(O)[C@@H](COC(Cc2ccc(N3CCCNC3=O)cc2)(C(=O)O)C(=O)O)O[C@@H](n2cnc3c(NC)nc(Cl)nc32)[C@@H]1O` [Example 141, 2-(((2R,3S,4R,5R)-5-(2-chloro-6-(methylamino)-9H-purin-9-yl)-3-ethynyl-3,4-dihydroxytetrahydrofuran-2-yl)methoxy)-2-(4-(2-oxotetrahydropyrimidin-1 (2H)-yl)benzyl)malonic acid], the IC50 amounted to 0.23 nM.

For `C#C[C@@]1(O)[C@@H](COC(Cc2ccccc2)(C(=O)O)C(=O)O)O[C@@H](n2cnc3c(NCCOC)nc(Cl)nc32)[C@@H]1O` [Example 38, 2-benzyl-2-(((2R,3S,4R,5R)-5-(2-chloro-6-((2-methoxyethyl)amino)-9H-purin-9-yl)-3-ethynyl-3,4-dihydroxytetrahydrofuran-2-yl)methoxy)malonic acid], the IC50 came to 3 nM.

Consider `C#C[C@@]1(O)[C@@H](COC(Cc2ccccc2)(C(=O)O)C(=O)O)O[C@@H](n2cnc3c(N(C)C4CCC4)nc(Cl)nc32)[C@@H]1O` [Example 81, 2-benzyl-2-(((2R,3S,4R,5R)-5-(2-chloro-6-(cyclobutyl(methyl)amino)-9H-purin-9-yl)-3-ethynyl-3,4-dihydroxytetrahydrofuran-2-yl)methoxy)malonic acid], for which the IC50 is 0.4 nM.

As for `C#C[C@@]1(O)[C@@H](COC(Cc2ccccc2)(C(=O)O)C(=O)O)O[C@@H](n2cnc3c(N(C)C(C)C)nc(Cl)nc32)[C@@H]1O` [Example 82, 2-benzyl-2-(((2R,3S,4R,5R)-5-(2-chloro-6-(isopropyl(methyl)amino)-9H-purin-9-yl)-3-ethynyl-3,4-dihydroxytetrahydrofuran-2-yl)methoxy)malonic acid], the IC50 was determined as 2 nM.

For `C#C[C@@]1(O)[C@@H](COC(Cc2ccccc2)(C(=O)O)C(=O)O)O[C@@H](n2cnc3c(NCc4cccc(Cl)c4)nc(Cl)nc32)[C@@H]1O` [Example 86, 2-benzyl-2-(((2R,3S,4R,5R)-5-(2-chloro-6-((3-chlorobenzyl)amino)-9H-purin-9-yl)-3-ethynyl-3,4-dihydroxytetrahydrofuran-2-yl)methoxy)malonic acid], the IC50 worked out at 1 nM.

In the case of `C#C[C@@]1(O)[C@@H](COC(Cc2ccccc2)(C(=O)O)C(=O)O)O[C@@H](n2cnc3c(N[C@H]4CCc5ccccc54)nc(Cl)nc32)[C@@H]1O` [Example 72, 2-benzyl-2-(((2R,3S,4R,5R)-5-(2-chloro-6-(((S)-2,3-dihydro-1H-inden-1-yl)amino)-9H-purin-9-yl)-3-ethynyl-3,4-dihydroxytetrahydrofuran-2-yl)methoxy)-malonic acid], the half-inhibitory concentration (IC50) turned out to be 3 nM.
